The record followed here is US20240398805A1, “QUINAZOLINE DERIVED COMPOUNDS AS EGFR INHIBITORS AND THEIR USES THEREOF” (ACCUTAR BIOTECHNOLOGY INC., priority 2021, published 2024).

Assay type in all cases: cell-based
The test system of experiment [1] is HCC827 cells. As to the kind of experiment: Cell growth inhibition (CellTiter-Glo, 3 days) in HCC827. The following applies: Homo sapiens, 72 h, 3 days after administration. As to the method:
(§1) 2. Cell Growth Inhibition for HCC827, HCC827-SVD, HCC827-ASV, HCC827-YVMA and A431.
(§2) HCC827(ATCC), HCC827-SVD, HCC827-ASV, HCC827-YVMA were seeded in 96-well plates at 5000 cells/well in 90 μl of RPMI growth medium containing 10% FBS and 1% Penicillin Streptomycin. A431 (ATCC) cells were seed in 96-well plates at 5000 cells/well in 90 μl of DMEM growth medium containing 10% FBS and 1% Penicillin Streptomycin. Cells were incubated at 3700 overnight. The following day, the test compound was administered to the cells by using 1 Ox compound stock solution prepared in growth medium at various concentrations. After administration of the compound, cells were then incubated at 3700 for 3 days. Before CeIlTiter-Glo assay, the plates were equilibrated at room temperature for approximately 10 minutes. 100 ul of CelTiter-Glo® Reagent (Promega) was added to each well. The plates were then incubated at room temperature for 10 minutes and luminescence was recorded by EnSpire plate reader (PerkinElmer).

Experiment [2] concerns HCC827-SVD cells (human EGFR exon 20 insertion mutant D770_N771 insSVD). As to the kind of experiment: Cell growth inhibition (CellTiter-Glo, 3 days) in HCC827-SVD. Particulars: 72 h, 3 days after administration. As to the method: (§3) 1. Preparation of HCC827-SVD, HCC827-ASV and HCC827-YVMA Cell Lines
HCC827-SVD cell line were generated by first transducing HCC827 cells (ATCC) with lentiviral particles expressing codon-optimized human EGFR exon 20 insertion mutant D770_N771 insSVD, and then selecting under 5 μg/ml purimycin treatment for a week.
The resulting cells were further transduced with lentiviral particles carrying EGFR sgRNA and CAS9 to knockout the endogenous alleles of EGFR, and then selected under 500 μg/ml hygromycin B treatment for two weeks. Single clone was subsequently generated by limiting dilution approach. Endogenous EGFR knockout was confirmed by Sanger sequencing of cell genomic DNA and expression of exogenous mutant EGFR was verified by Western blot analysis.
as §1, §2
A general note: Cellular ATP, detected with luciferase, serves as a proxy for viable cell number.

Experiment [3] relates to HCC827-ASV cells (human EGFR exon 20 insertion mutant A769_D770insASV). As to the kind of experiment: Cell growth inhibition (CellTiter-Glo, 3 days) in HCC827-ASV. Particulars: 72 h, 3 days after administration.
Text: as §3
(§4) HCC827-ASV and HCC827-YVMA cell lines were generated in the similar approach as HCC827-SVD except that HCC827 cells (ATCC) were first transduced with lentiviral particles expressing codon-optimized human EGFR exon 20 insertion mutant A769_D770insASV and human ERBB2 exon20 insertion mutant A775_G776ins YVMA, respectively.
as §1, §2

Experiment [4] relates to HCC827-YVMA cells (human ERBB2 exon20 insertion mutant A775_G776ins YVMA). Put plainly: Cell growth inhibition (CellTiter-Glo, 3 days) in HCC827-YVMA. Particulars: 72 h, 3 days after administration.
Text: as §3, §4, §1, §2

Experiment [5] deals with A431 cells. As to the kind of experiment: Cell growth inhibition (CellTiter-Glo, 3 days) in A431. Particulars: Homo sapiens, A-431, 72 h, 3 days after administration. As to the method:
as §1, §2

For `C=CC(=O)N1CCC(Nc2cc3c(Nc4ccc(Oc5ccn(-c6cc(F)c(C)cn6)n5)cc4F)ncnc3cc2OC)CC1` [Compound 15, 1-(4-((4-((2-fluoro-4-((1-(4-fluoro-5-methylpyridin-2-yl)-1H-pyrazol-3-yl)oxy)phenyl)amino)-7-methoxyquinazolin-6-yl)amino)piperidin-1-yl)prop-2-en-1-one], the GI50 (usually the concentration that inhibits growth by half) was 100 to 300 nM in experiment [1]; 100 to 300 nM in experiment [2]; 100 to 300 nM in experiment [3]; 60 to 100 nM in experiment [4]; 100 to 300 nM in experiment [5].
`C=CC(=O)N1CCC(Nc2cc3c(Nc4ccc(Oc5ccn(-c6ccc(C)cn6)n5)c(Cl)c4)ncnc3cc2OC)CC1` [Compound 16]: the GI50 in experiment [1] is less than 30 nM; in experiment [2], less than 30 nM; in experiment [3] it was less than 30 nM; in experiment [4] it was less than 30 nM; in experiment [5], 300 to 600 nM.
With `COc1cc2ncnc(Nc3ccc(Oc4ccn(-c5cnc(C)c(F)c5)n4)cc3F)c2cc1NC1CCN(C(=O)/C=C/CN(C)C)CC1` [Compound 21, (2E)-4-(dimethylamino)-1-[4-({4-[(2-fluoro-4-{[1-(5-fluoro-6-methylpyridin-3-yl)pyrazol-3-yl]oxy}phenyl)amino]-7-methoxyquinazolin-6-yl}amino)piperidin-1-yl]but-2-en-1-one], the GI50 is not below 1000 nM in experiment [1]; not below 1000 nM in experiment [2]; not below 1000 nM in experiment [3]; 300 to 600 nM in experiment [4]; not below 1000 nM in experiment [5].
Consider `C=CC(=O)N1CCC(Nc2cc3c(Nc4ccc(Oc5ccn(-c6nc(OC)nc(OC)n6)n5)cc4F)ncnc3cc2OC)CC1` [Compound 31, 1-(4-((4-((4-((1-(4,6-dimethoxy-1,3,5-triazin-2-yl)-1H-pyrazol-3-yl)oxy)-2-fluorophenyl)amino)-7-methoxyquinazolin-6-yl)amino)piperidin-1-yl)prop-2-en-1-one], for which the GI50 in experiment [1] was less than 30 nM; in experiment [2], 30 to 60 nM; in experiment [3], 30 to 60 nM; in experiment [4], less than 30 nM; in experiment [5], less than 30 nM.
On to `C=CC(=O)N1CCC(Nc2cc3c(Nc4ccc(Oc5ccnc(-c6cnn(C)c6)c5)cc4F)ncnc3cc2OC)CC1` [Compound 34, 1-(4-((4-((2-fluoro-4-((2-(1-methyl-1H-pyrazol-4-yl)pyridin-4-yl)oxy)phenyl)amino)-7-methoxyquinazolin-6-yl)amino)piperidin-1-yl)prop-2-en-1-one], for which the GI50 is 600 to 1000 nM in experiment [1]; 30 to 60 nM in experiment [2]; 60 to 100 nM in experiment [3]; 60 to 100 nM in experiment [4]; not below 1000 nM in experiment [5].
For `C=CC(=O)N1CCC(Nc2cc3c(Nc4ccc(Oc5ccnc(N6CCOCC6)c5)cc4F)ncnc3cc2OC)CC1` [Compound 35, 1-(4-((4-((2-fluoro-4-((2-morpholinopyridin-4-yl)oxy)phenyl)amino)-7-methoxyquinazolin-6-yl)amino)piperidin-1-yl)prop-2-en-1-one], the GI50 was 100 to 300 nM in experiment [1]; less than 30 nM in experiment [2]; less than 30 nM in experiment [3]; less than 30 nM in experiment [4]; not below 1000 nM in experiment [5].
`C=CC(=O)N1CCC(Nc2cc3c(Nc4ccc(Oc5ccnc(-c6cscn6)c5)cc4F)ncnc3cc2OC)CC1` [Compound 41, 1-(4-((4-((2-fluoro-4-((2-(thiazol-4-yl)pyridin-4-yl)oxy)phenyl)amino)-7-methoxyquinazolin-6-yl)amino)piperidin-1-yl)prop-2-en-1-one]: the GI50 in experiment [1] is 60 to 100 nM; in experiment [2], less than 30 nM; in experiment [3], less than 30 nM; in experiment [4] it was less than 30 nM; in experiment [5], 300 to 600 nM.
